Measurements taken from patent US20240360247A1, “COMPOSITIONS AND METHODS FOR TREATMENT OF CANCER” (Johns Hopkins University, priority 2021, published 2024).

Experiments:
[1] = tested on: HCT-116 cells; experiment: Effect of D-PDMP on cell proliferation (3H-thymidine incorporation); assay type: cell-based, human
Experimental: HCT-116 cells were seeded (10^4/well) in 96-well sterile plastic plates, and grown for 24 h in complete medium, with 10% fetal calf serum. The media was then replaced with 2% serum-containing media (100 μL) plus ^3H-thymidine ([…]), with and without D-PDMP. After another 24 h incubation, incorporation of ^3H-thymidine into DNA was measured by scintillation spectrometry.

[2] = biological target: T1, UGCG (Homo sapiens, UniProt Q16739); experiment: Effect of D-PDMP on IHC localization of glycosyltransferases in human CRC cells (UGCG); assay type: cell-based; settings: HCT-116, 10p M D-PDMP, 24 h, vs control
T1 construct: endogenous in cells; host or cells: HCT-116
T1 sequence (Q16739 1-394): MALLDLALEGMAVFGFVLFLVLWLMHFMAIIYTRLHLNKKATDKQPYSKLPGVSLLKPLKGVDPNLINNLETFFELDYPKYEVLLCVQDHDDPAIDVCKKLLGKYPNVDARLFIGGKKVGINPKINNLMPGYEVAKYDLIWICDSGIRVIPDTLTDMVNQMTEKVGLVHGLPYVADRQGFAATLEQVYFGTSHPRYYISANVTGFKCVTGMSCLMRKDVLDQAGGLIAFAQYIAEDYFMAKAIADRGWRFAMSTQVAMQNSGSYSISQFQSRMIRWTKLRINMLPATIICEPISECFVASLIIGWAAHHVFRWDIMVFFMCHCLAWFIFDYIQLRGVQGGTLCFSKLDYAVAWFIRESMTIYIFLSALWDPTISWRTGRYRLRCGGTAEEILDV
Experimental: (§1) HCT-116 cells were seeded (10^4) onto sterilized glass coverslips, which were then placed in 6-well sterile plastic trays and grown for 24 h in complete media. Next, the media was replaced with 2 mL of 2% serum-containing media, plus […] D-PDMP. After incubation for 24 and 96 h, the media was removed, and cells were fixed with ethanol, washed, incubated with antibody against β-1,4-GalT-V or UGCG, and photographed.

[3] = biological target: T2, β-1,4-GalT-V (Homo sapiens, UniProt O43286); experiment: Effect of D-PDMP on IHC localization of glycosyltransferases in human CRC cells (β-1,4-GalT-V); assay type: cell-based; settings: HCT-116, D-PDMP, 24 and 96 h, vs controls
T2 construct: endogenous in cells; host or cells: HCT-116
T2 sequence (O43286 1-388): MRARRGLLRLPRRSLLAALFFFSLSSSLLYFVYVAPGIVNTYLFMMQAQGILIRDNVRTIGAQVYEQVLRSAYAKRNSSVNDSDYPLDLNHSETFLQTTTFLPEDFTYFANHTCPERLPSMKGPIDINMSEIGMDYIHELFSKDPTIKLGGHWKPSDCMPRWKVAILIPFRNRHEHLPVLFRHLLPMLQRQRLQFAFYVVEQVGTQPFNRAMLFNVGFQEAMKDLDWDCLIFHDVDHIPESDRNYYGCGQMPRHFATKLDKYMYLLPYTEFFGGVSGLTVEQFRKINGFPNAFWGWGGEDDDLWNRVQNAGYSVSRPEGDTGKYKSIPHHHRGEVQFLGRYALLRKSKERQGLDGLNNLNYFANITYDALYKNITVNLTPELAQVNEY
Experimental: as §1

[4] = tested on: HCT-116 cells; experiment: LC-MS sphingolipid levels in HCT-116 cells; assay type: cell-based, human; settings: D-PDMP 10 μM, 24 h, vs control
Experimental: HCT-116 cells were seeded ([…]) onto sterilized (100-mm^2) plastic Petri dishes in 10 mL of medium for 24 h. Media was then changed to 2% serum-containing media, with and without D-PDMP (10 μM). After 24 h, media was removed, and total lipids were extracted, using hexane-isopropanol (3:2, by volume) in the presence of sphingolipid internal standards, and subject to MS. […] Data represent averages±SEm, N=3 biological replicates for control and 10 μM D-PDMP in (FIGS. 4A-4H), and the unpaired t-tested was used for statistical analysis.*P≤0.05,**P≤0.01]\
Sphingolipid levels in human CRC tissue and in human cultured CRC cells (HCT-116) were measured by LC-MS, as described previously (23). Visibly normal and CRC tissues (50 mg) were homogenized in chloroform-methanol (2:1), in the presence of sphingolipid internal standards. […] HCT-116 cells were grown in 100 mm^2 sterile, plastic Petri dishes. Lipid extracts were subject to LC-MS, as described (24, 25).

[5] = tested on: human colorectal cancer cells (HCT-116); experiment: [89Zr] GalT-V antibody binding and internalization (gamma counter); assay type: cell-based; settings: HCT-116 pre-incubated with D-PDMP 20 uM
Experimental: Cell cultures were incubated with increasing concentrations of [^89Zr] GalT-V antibody, washed and radioactivity was measured in an automated gamma counter (1282 Compu-gamma CS, Pharmacia/LKB Nuclear, Inc.).
Cell cultures were incubated with increasing concentrations of [^89Zr] GalT-V antibody, washed and radioactivity was measured in a gamma counter. […] GalT-V antibody binding in human coronary arterial endothelial cells (HCAEC) and human colorectal cancer cells (HCT-116) after 2-hour incubation at 37° C.
Cells were pre-incubated with and without an inhibitor of GalT-V, D-PDMP (20 uM), followed by the measurement of binding and internalization of [^89Zr] GalT-V antibody. […] GalT-V antibody (n=3, p**=0.0079).
Cells were incubated in the presence of excess unlabeled (cold, 50 ug/mL) GalT-V antibody as well as [^89Zr] GalT-V Ab. […] (n=3, p****=<0.0001). Results are shown in FIG. 24 which depicts specificity of binding and internalization of [^89Zr] GalT-V antibody in human colorectal cancer cells (HCT-116).

[6] = tested on: renal cancer; settings: mouse, in vivo; cited from earlier work
[7] = tested on: human endothelial cells; settings: cited from earlier work

UGCG immunofluorescence [2]: No difference
GalT-V fluorescence [3]: reduced GalT-V fluorescence
SMILES: CCCCCCCCCC(=O)N[C@H](CN1CCOCC1)[C@H](O)c1ccccc1 [D-PDMP, D-threo-1-phenyl-2-decanoylamino-3-morpholino-1-propanol]
proliferation of HCT-116 cells ([1]; 24 and 96 h, compared to control cells): dose- and time-dependent (FIGS. 3A, 3B) decrease in proliferation
maximal effective dose (decrease in proliferation) ([1]; HCT-116, 24 and 96 h): 20 µM
level of Cer [4]: reduced levels
level of DHCer [4]: reduced levels
level of DHLacCer [4]: reduced levels
level of dihexosylceramide [4]: reduced levels
level of dihydroGalCer/dihydroGlcCer [4]: reduced levels
level of monohexosylceramides [4]: reduced levels
effect on binding and internalization of [89Zr] GalT-V antibody [5]: reduced the binding and internalization
GalT-V mass [6]: markedly reduced
tumor volume [6]: markedly reduced tumor volume
angiogenesis [7]: reduced angiogenesis
